Experimental data published in PMC5618621, “Non-Clinical Studies for Evaluation of 8-C-Rhamnosyl Apigenin Purified from Peperomia obtusifolia against Acute Edema” (International Journal of Molecular Sciences, 2017).
pIC50: −log10 of the molar value.

Molecular target: T1, cytosolic phospholipase A2 (cPLA2) (Homo sapiens, UniProt P47712)
T1 construct: gene PLA2G4A
T1 sequence (P47712 1-749): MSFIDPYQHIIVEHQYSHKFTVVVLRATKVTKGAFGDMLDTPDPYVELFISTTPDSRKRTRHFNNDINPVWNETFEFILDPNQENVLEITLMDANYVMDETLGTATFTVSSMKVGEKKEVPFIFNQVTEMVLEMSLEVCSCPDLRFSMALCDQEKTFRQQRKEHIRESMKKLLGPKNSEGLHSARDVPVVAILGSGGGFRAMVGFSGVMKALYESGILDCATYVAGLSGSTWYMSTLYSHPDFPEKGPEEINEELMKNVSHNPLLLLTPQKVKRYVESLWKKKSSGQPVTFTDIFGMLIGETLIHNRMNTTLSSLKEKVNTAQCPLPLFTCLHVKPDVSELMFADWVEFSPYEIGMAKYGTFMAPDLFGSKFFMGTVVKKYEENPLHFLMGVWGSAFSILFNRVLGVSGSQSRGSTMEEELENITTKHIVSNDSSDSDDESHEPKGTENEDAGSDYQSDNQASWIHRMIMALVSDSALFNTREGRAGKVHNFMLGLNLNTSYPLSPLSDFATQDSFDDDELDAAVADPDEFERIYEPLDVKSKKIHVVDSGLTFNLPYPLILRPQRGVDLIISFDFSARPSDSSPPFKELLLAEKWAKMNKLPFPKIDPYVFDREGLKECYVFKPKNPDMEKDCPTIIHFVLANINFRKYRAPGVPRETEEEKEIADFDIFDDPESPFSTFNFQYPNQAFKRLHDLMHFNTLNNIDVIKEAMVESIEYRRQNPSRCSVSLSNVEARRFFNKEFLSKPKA
Assay: recombinant cPLA2 enzymatic assay (Cayman cPLA2 assay kit)
Assay type: biochemical

- pIC50: 3.87
Structure (SMILES): C[C@@H]1OC(c2c(O)cc(O)c3c(=O)cc(-c4ccc(O)cc4)oc23)[C@H](O)[C@H](O)[C@H]1O (stereo partly shown) [8CR, 8-C-rhamnosyl apigenin]
